{"source": "patent US6159932A", "about": "“Endoparasiticidal compositions” (Bayer Aktiengesellschaft, priority 1995, dated 2000)", "key": {"Nematospiroides dubius": {"test_system": "Nematospiroides dubius", "experiment": "In vivo nematode test, Nematospiroides dubius in the mouse", "settings": "oral", "method": "Nematospiroides dubius in the Mouse\nMice are infected experimentally with nematodes of the species Nematospiroides dubius. For infection, the mice are administered orally with Nematospiroides dubius as 60 filariform larvae.\nAfter the prepatency period has expired, the suspended active substances are administered orally on day 12 after infection.\n(§1) Determination of the Activity\nThe mice are selected on day 20 after infection. The adult parasites in the Duodenum are counted by means of a compressor. The success of treatment in the dose group is made relative to the untreated control group."}, "Ancylostoma caninum": {"test_system": "Ancylostoma caninum", "experiment": "In-vivo nematode test, Ancylostoma caninum in dogs", "settings": "oral", "method": "Ancylostoma caninum in dogs\nBeagle puppies were experimentally infested with hookworms (Ancylostoma caninum). Amount of infestation material were 250 L3 larvae.\nAfter the prepatent period, when mature worms are present within the gastrointestinal tract, the dogs were orally treated with the test compounds as pure active in gelatine capsules.\nDetermination of the Efficacy was Carried Out According to the Following Two Methods\n1. Counts of worm eggs within the dogs faces before and after treatment.\n2. Percent efficacy at a critical test calculated using the formula: [formula]"}, "Heterakis spumosa": {"test_system": "Heterakis spumosa", "experiment": "In vivo nematode test, Heterakis spumosa in the mouse", "settings": "oral", "method": "Heterakis spumosa in the Mouse\nMice are infected experimentally with nematodes of the species Heterakis spumosa. For infection, the mice are administered orally with Heterakis spumosa as 90 embryonate eggs.\nAfter the prepatency period has expired, the suspended active substances are administered orally on day 46 after infection.\nas §1\nThe mice are selected on day 54 after infection. The adult parasites are counted in the colon and caecum using a microscope. The success of treatment in the dose group is made relative to the untreated control group."}, "hookworm and whipworm": {"test_system": "hookworm and whipworm", "settings": "human medicine, high dosage on several days in succession; cited from earlier work"}, "[1]": {"test_system": "hookworm Uncinaria stenocephala", "settings": "500 μg/kg, dogs; cited from earlier work"}, "[2]": {"settings": "ivermectin B1a/B1b 0.1 mg/kg alone"}}}
{"compound": "CC(C)C[C@H]1C(=O)O[C@H](Cc2ccccc2)C(=O)N(C)[C@@H](CC(C)C)C(=O)O[C@H](C)C(=O)N(C)[C@@H](CC(C)C)C(=O)O[C@H](Cc2ccccc2)C(=O)N(C)[C@@H](CC(C)C)C(=O)O[C@H](C)C(=O)N1C", "note": "[PF 1022 A]", "values": [{"measurement": "Reduction rate", "setting": "Nematospiroides dubius; PF 1022 A 25.0 mg/kg alone", "value": 0, "unit": "%"}, {"measurement": "Reduction rate", "setting": "Nematospiroides dubius; PF 1022 A 50.0 mg/kg alone", "value": 0, "unit": "%"}, {"measurement": "Reduction rate", "setting": "Ancylostoma caninum; PF 1022 A 0,5 mg/kg alone", "value": 0, "unit": "%"}, {"measurement": "Reduction rate", "setting": "Ancylostoma caninum; PF 1022 A 1,0 mg/kg alone", "value": 100, "unit": "%"}, {"measurement": "Reduction rate", "setting": "Heterakis spumosa; PF 1022 A 5.0 mg/kg alone", "value": 0, "unit": "%"}, {"measurement": "Reduction rate", "setting": "Heterakis spumosa; PF 1022 A 10.0 mg/kg alone", "value": 0, "unit": "%"}, {"measurement": "Reduction rate", "setting": "Heterakis spumosa; PF 1022 A 25.0 mg/kg alone", "value": 0, "unit": "%"}, {"measurement": "Reduction rate", "setting": "Heterakis spumosa; PF 1022 A 50.0 mg/kg alone", "value": 0, "unit": "%"}]}
{"compound": "22,23-dihydroavermectins B1a /B1b [Ivermectin B1a /B1b]", "values": [{"measurement": "Reduction rate", "setting": "Nematospiroides dubius; [2]", "value": 0, "unit": "%"}, {"measurement": "efficacy in hookworm and whipworm infected patients", "setting": "hookworm and whipworm", "value": "ineffective"}, {"measurement": "Reduction rate", "setting": "Ancylostoma caninum; ivermectin B1a/B1b 0,01 mg/kg alone", "value": 100, "unit": "%"}, {"measurement": "Reduction rate", "setting": "Ancylostoma caninum; ivermectin B1a/B1b 0,001 mg/kg alone", "value": 0, "unit": "%"}, {"measurement": "Reduction rate", "setting": "Heterakis spumosa; [2]", "value": "< 50", "unit": "%"}]}
{"compound": "Milbemycin", "values": [{"measurement": "action against the hookworm Uncinaria stenocephala", "setting": "[1]", "value": "distinct weakness in its action"}]}
